# From ChEMBL document CHEMBL1132503, “N'-[2-(2-thiophene)ethyl]-N'-[2-(5-bromopyridyl)] thiourea as a potent inhibitor of NNI-resistant and multidrug-resistant human immunodeficiency virus-1” (Bioorg Med Chem Lett, 1999)
# pIC50: −log10 of the molar value.
# Experiments:
# [1] = target: Human immunodeficiency virus type 1 reverse transcriptase (Human immunodeficiency virus 1, UniProt Q72547); experiment: (§1) Inhibition of recombinant reverse transcriptase (RT) in cell-free Quan-T-RT assay system
# [2] = target: Human immunodeficiency virus type 1 reverse transcriptase (Human immunodeficiency virus 1) (UniProt Q72547); experiment: as §1
# [3] = Ability to inhibit the replication of RT-MDR (V106A) strain of HIV-1 p24 antigen production in PBMC; assay type: functional; conditions: Homo sapiens
# [4] = Ability to inhibit the replication of A17 (Y181C) strain of HIV-1 p24 antigen production in PBMC; assay type: functional; conditions: Homo sapiens
# [5] = Cytotoxic concentration was evaluated using microculture tetrazolium assay (MTA); assay type: functional; conditions: Homo sapiens
# [6] = Ability to inhibit the replication of A17 variant (Y181C,K103N) strain of HIV-1 p24 antigen production in PBMC; assay type: functional, Homo sapiens
# [7] = Cytotoxicity was evaluated using microculture tetrazolium assay (MTA); assay type: functional; conditions: Homo sapiens
# [8] = Ability to inhibit the replication of HTLV IIIb strain of HIV-1 p24 antigen production in PBMC; assay type: functional; conditions: Homo sapiens
pIC50 [1],IC90 [2],Structure (SMILES),pIC50 [3],pIC50 [4],CC50 [5],pIC50 [6],CC50 [7],pIC50 [8]
6.05,> 100000 nM,S=C(NCCc1c[nH]c2ccccc12)Nc1ccc(Br)cn1,–,–,–,–,–,–
6.15,> 100000 nM,S=C(NCCc1ccc2c(c1)OCO2)Nc1ccc(Br)cn1,–,–,–,–,–,–
–,–,Fc1ccccc1CC/N=C(\S)Nc1ccc(Br)cn1,8.30,6.70,–,4.39,> 100000 nM,> 9.00
–,–,CCOCn1c(Cc2ccccc2)c(C(C)C)c(=O)[nH]c1=O [EMIVIRINE],6.57,–,> 100000 nM,–,–,–
–,–,CC(C)Nc1cccnc1N1CCN(C(=O)c2cc3cc(NS(C)(=O)=O)ccc3[nH]2)CC1 [DELAVIRDINE],6.40,4.30,3600 nM,< 4.00,–,8.05
5.31,> 100000 nM,S=C(NCCN1CCCC1)Nc1ccc(Br)cn1,–,–,–,–,–,–
< 4.00,> 100000 nM,CN1CCCC1CC/N=C(\S)Nc1ccc(Br)cn1 (stereo unspecified),–,–,–,–,–,–
5.92,> 100000 nM,S=C(NCCc1ccco1)Nc1ccc(Br)cn1,–,–,–,–,–,–
< 4.00,> 100000 nM,S=C(NCCN1CCOCC1)Nc1ccc(Br)cn1,–,–,–,–,–,–
–,–,Cc1ccnc2c1NC(=O)c1cccnc1N2C1CC1 [NEVIRAPINE],5.30,< 4.00,10500 nM,< 4.00,–,7.47

Structure (SMILES),pIC50 [1],IC90 [2],pIC50 [3],pIC50 [4],CC50 [5],pIC50 [6],CC50 [7],pIC50 [8]
Cc1cn([C@H]2C[C@H](N=[N+]=[N-])[C@@H](CO)O2)c(=O)[nH]c1=O [ZIDOVUDINE],< 4.00,–,6.70,8.22,> 100000 nM,8.40,–,–
S=C(NCCc1c[nH]cn1)Nc1ccc(Br)cn1,–,> 100000 nM,–,–,–,–,–,–
S=C(NCCc1cccs1)Nc1ccc(Br)cn1,6.10,15000 nM,8.40,7.32,> 100000 nM,5.48,–,7.52
S=C(NCCc1cnc[nH]1)Nc1ccc(Br)cn1,< 4.00,–,–,–,–,–,–,–
S=C(NCCN1CCCCC1)Nc1ccc(Br)cn1,6.22,–,< 4.00,< 4.00,> 100000 nM,< 4.00,–,9.00
S=C(NCCc1ccccn1)Nc1ccc(Br)cn1 [TROVIRDINE],6.22,12000 nM,7.70,6.30,> 100000 nM,< 4.00,–,8.15
